Reference: patent US20250072419A1, “SYSTEMS AND METHODS FOR APPLICATION OF ACTIVE INGREDIENTS TO CANNABIS” (Hazel Technologies, Inc., priority 2020, published 2025)
Values joined by “and” are separate entries in the source; they are usually repeats but may differ in a detail not shown here. Equal entries are not always repeated.

How the values were obtained:
Assay type in all cases: in vivo
Cannabis variety B [1] = experiment: total biomass and flower biomass of dried plants after 1-MCP treatment, variety B
Description: (§1) To examine the effect of 1-MCP exposure, six genetic replicates of a first variety of Cannabis (variety ‘A’) and six genetic replicates of a second variety of Cannabis (variety ‘B’) were grown under greenhouse conditions for a period of four weeks, then transferred to growth chamber conditions with a 12 hour photoperiod for three weeks to induce flower formation. Variety A was from a hybrid strain of 15% sativa and 85% indica bred by BC Bud Depot under the strain name Shiatsu. Variety B was from a hybrid strain of 50% sativa and 50% indica bred by Spectrum under the strain name Jack's Girl. Greenhouse conditions and growth chamber conditions are detailed in Table 1. Next, three of the genetic replicates of each variety were treated with 1-MCP via fumigation in a 295 cubic foot growth chamber for 18 hours using a source of the 1-MCP. The source of the 1-MCP was 250 g of a composition comprising 1-MCP in an amount of 2 wt % loaded in activated carbon as a porous adsorbent material. The treatment was initially activated via the addition of 0.07 gallons of liquid water to the composition, which accelerated release of 1-MCP and established an atmosphere within the growth chamber of 36.3 ppm 1-MCP. Twelve days later, the 18-hour 1-MCP treatment was repeated, and the treatment was repeated again the next day. Control groups of each variety were watered and exposed to identical conditions except that they were never fumigated with 1-MCP.
(§2) To examine the effect of 1-MCP exposure, the genetic replicates from variety A and variety B of Example 1 were measured (i) after plants were dried and (ii) after plants were dried and trimmed, reflecting flower biomass. Measurement (i) provided the total biomass of each genetic replicate, while measurement (ii) provided the mass of consumer-ready product. The drying of the plants was performed by placing the plants into a drying chamber (90° F., 16% relative humidity) for 72 hours prior to measurement and/or trimming.

[2] = tested on: female Cannabis plants, variety 'A' (Shiatsu, 15% sativa and 85% indica); experiment: development of male sex organs / phenotype on female plants after 1-MCP fumigation, variety A
Description: as §1, with “Control groups of each variety were watered and exposed to identical conditions except that they were never fumigated with 1-MCP.” left out

Cannabis variety A [3] = experiment: total biomass and flower biomass of dried plants after 1-MCP treatment, variety A
Description: as §1, §2

Cannabis variety B [4] = experiment: cannabinoid profile of floral tissue by HPLC after 1-MCP treatment, variety B
Description: as §1, with “The treatment was initially activated via the addition of 0.07 gallons of liquid water to the composition, which accelerated release of 1-MCP and established an atmosphere within the growth chamber of 36.3 ppm 1-MCP. Twelve days later, the 18-hour 1-MCP treatment was repeated, and the treatment was repeated again the next day. Control groups of each variety were watered and exposed to identical conditions except that they were never fumigated with 1-MCP.” left out
Cannabinoids concentrations were measured in the genetic replicates from variety A and variety B of Example 1 at three time-points: T1—two days before the first treatment with 1-MCP; T2—one week after the first treatment with 1-MCP; and T3—after all 1-MCP treatments, once the genetic replicates had reached full plant maturity. […]

Cannabis variety A [5] = experiment: cannabinoid profile of floral tissue by HPLC after 1-MCP treatment, variety A
Description: as §1
Cannabinoids concentrations were measured in the genetic replicates from variety A and variety B of Example 1 at three time-points: T1—two days before the first treatment with 1-MCP; T2—one week after the first treatment with 1-MCP; and T3—after all 1-MCP treatments, once the genetic replicates had reached full plant maturity. At each timepoint, three samples of floral tissue were collected from each genetic replicate and frozen overnight. To prepare samples of floral tissue for high performance liquid chromatography (HPLC) analysis, frozen floral tissue was ground, extracted in HPLC-grade methanol, and filtered. HPLC was performed on the filtered methanol, providing a cannabinoid profile for each sample of floral tissue.
Analysis of Variance (ANOVA) was performed to evaluate the effect of 1-MCP on cannabinoid content under each set of experimental conditions.

[6] = tested on: female Cannabis plants, variety 'B' (Jack's Girl, 50% sativa and 50% indica); experiment: development of male sex organs on female plants after 1-MCP fumigation, variety B; conditions: for Flower clusters displaying male organs 30 days after treatment 3 (%): 36.3 ppm 1-MCP
Description: as §1
Stamens were not observed in variety ‘A’ genetic replicates or in either control group.

[7] = Treatment, single specimens, dried and trimmed plants
[8] = Treatment, single specimens, dried plants

CC1=CC1 [1-MCP, 1-methylcyclopropene]
decrease in flower biomass versus control (Cannabis variety B [1]): ~2% | decrease in total biomass versus control (Cannabis variety B [1]): ~2% | deleterious effect on the biomass (Cannabis variety B [1]): did not have a deleterious effect | Flower Biomass Group Mean (Cannabis variety B [1]; Treatment, mean of 3 specimens, control mean 102.3): 100.3 g | Total Biomass Group Mean (Cannabis variety B [1]; Treatment, mean of 3 specimens, control mean 118.3): 115.6 g | Flower Biomass (Cannabis variety B [1]; [7]): 95 g and 106 g and 100 g | Total Biomass (Cannabis variety B [1]; [8]): 111 g and 121 g and 115 g | staminate growth ([2]; variety A genetic replicates treated with 1-MCP): Staminate growth was not observed | plants observed to have purple leaves ([2]; variety A, three 1-MCP-treated plants (FIG. 7), none of three controls): two of three | deleterious effect on the biomass (Cannabis variety A [3]): did not have a deleterious effect | increase in flower biomass over the control group (Cannabis variety A [3]): ~10% | increase in total biomass over the control group (Cannabis variety A [3]): ~22% | Flower Biomass Group Mean (Cannabis variety A [3]; Treatment, mean of 3 specimens, control mean 87.6): 95.3 g | Total Biomass Group Mean (Cannabis variety A [3]; Treatment, mean of 3 specimens, control mean 105): 118.3 g | Flower Biomass (Cannabis variety A [3]; [7]): 98 g and 90 g | Total Biomass (Cannabis variety A [3]; [8]): 130 g and 120 g and 105 g | deleterious effects on the overall profile of cannabinoids (Cannabis variety B [4]): no deleterious effects | total cannabinoid concentration, treated versus control (ANOVA) (Cannabis variety B [4]; mature plants (T3) (FIG. 8)): no statistically significant difference | deleterious effects on the overall profile of cannabinoids (Cannabis variety A [5]; variety A): no deleterious effects | THCA, THCVA and CBGA concentrations, treated versus control (ANOVA) (Cannabis variety A [5]; variety A (FIGS. 9A-C)): A few statistically significant differences | total cannabinoid concentration, treated versus control (ANOVA) (Cannabis variety A [5]; variety A, mature plants (T3) (FIG. 8)): no statistically significant difference | total cannabinoid concentration, treated versus control (ANOVA) (Cannabis variety A [5]; variety A, timepoint T2, one week after the first treatment (FIG. 8)): statistically significant difference | stamen growth on female floral tissue ([6]; 15 days after final fumigation (FIG. 5)): presence of multiple stamens | stamen growth on female floral tissue ([6]; 19 days after final fumigation (FIG. 6)): multiple stamens | Flower clusters displaying male organs 30 days after treatment 3 (%) ([6]; Plant 1, three 18 h fumigations): 97% | Flower clusters displaying male organs 30 days after treatment 3 (%) ([6]; Plant 2, three 18 h fumigations): 100% | Flower clusters displaying male organs 30 days after treatment 3 (%) ([6]; Plant 3, three 18 h fumigations): 86% | stamen growth on female floral tissue ([6]; five days after final fumigation (FIG. 4)): further development of stamen growth | flower clusters displaying staminate growth ([6]; thirty days after the final 1-MCP treatment): 80-100% | stamen growth on female floral tissue ([6]; three days after the final fumigation (FIG. 3)): stamens were observed
